According to patent US20230192700A1, “PYRAZOLOPYRAZINES ACTING ON CANCERS VIA INHIBITION OF CDK12” (Bayer Aktiengesellschaft, priority 2020, published 2023):

How the values were obtained:
[1] = molecular target: T1, CYCLIN K (Homo sapiens, UniProt O75909); test: CYCLIN K nuclear protein level: immunofluorescence/high content analysis in CAL-120 cells; assay type: cell-based; settings: 24 h, nuclear CCNK staining intensity, median, read-out: CYCLIN K degradation IF, DC50- [mol/l] (median)
T1 construct: endogenous in cells; host or cells: CAL-120 human breast cancer cells (DSMZ ACC 459)
T1 sequence (O75909 whole entry): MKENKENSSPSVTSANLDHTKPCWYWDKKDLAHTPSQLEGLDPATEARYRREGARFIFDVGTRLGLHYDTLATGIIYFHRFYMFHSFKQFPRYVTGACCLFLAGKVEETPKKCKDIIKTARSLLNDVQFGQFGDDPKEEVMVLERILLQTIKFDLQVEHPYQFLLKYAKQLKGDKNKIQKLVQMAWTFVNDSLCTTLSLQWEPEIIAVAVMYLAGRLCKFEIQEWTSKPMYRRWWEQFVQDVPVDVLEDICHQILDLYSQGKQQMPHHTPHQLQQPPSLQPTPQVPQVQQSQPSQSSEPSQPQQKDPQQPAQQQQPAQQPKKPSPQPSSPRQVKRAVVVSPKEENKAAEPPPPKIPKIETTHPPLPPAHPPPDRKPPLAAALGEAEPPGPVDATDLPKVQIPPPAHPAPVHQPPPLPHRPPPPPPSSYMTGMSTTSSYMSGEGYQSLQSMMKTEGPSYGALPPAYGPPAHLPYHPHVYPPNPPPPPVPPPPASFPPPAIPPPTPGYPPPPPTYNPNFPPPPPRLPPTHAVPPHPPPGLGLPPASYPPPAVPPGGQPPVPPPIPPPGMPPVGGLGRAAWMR
T1 sequence (Q9NYV4 whole entry partner): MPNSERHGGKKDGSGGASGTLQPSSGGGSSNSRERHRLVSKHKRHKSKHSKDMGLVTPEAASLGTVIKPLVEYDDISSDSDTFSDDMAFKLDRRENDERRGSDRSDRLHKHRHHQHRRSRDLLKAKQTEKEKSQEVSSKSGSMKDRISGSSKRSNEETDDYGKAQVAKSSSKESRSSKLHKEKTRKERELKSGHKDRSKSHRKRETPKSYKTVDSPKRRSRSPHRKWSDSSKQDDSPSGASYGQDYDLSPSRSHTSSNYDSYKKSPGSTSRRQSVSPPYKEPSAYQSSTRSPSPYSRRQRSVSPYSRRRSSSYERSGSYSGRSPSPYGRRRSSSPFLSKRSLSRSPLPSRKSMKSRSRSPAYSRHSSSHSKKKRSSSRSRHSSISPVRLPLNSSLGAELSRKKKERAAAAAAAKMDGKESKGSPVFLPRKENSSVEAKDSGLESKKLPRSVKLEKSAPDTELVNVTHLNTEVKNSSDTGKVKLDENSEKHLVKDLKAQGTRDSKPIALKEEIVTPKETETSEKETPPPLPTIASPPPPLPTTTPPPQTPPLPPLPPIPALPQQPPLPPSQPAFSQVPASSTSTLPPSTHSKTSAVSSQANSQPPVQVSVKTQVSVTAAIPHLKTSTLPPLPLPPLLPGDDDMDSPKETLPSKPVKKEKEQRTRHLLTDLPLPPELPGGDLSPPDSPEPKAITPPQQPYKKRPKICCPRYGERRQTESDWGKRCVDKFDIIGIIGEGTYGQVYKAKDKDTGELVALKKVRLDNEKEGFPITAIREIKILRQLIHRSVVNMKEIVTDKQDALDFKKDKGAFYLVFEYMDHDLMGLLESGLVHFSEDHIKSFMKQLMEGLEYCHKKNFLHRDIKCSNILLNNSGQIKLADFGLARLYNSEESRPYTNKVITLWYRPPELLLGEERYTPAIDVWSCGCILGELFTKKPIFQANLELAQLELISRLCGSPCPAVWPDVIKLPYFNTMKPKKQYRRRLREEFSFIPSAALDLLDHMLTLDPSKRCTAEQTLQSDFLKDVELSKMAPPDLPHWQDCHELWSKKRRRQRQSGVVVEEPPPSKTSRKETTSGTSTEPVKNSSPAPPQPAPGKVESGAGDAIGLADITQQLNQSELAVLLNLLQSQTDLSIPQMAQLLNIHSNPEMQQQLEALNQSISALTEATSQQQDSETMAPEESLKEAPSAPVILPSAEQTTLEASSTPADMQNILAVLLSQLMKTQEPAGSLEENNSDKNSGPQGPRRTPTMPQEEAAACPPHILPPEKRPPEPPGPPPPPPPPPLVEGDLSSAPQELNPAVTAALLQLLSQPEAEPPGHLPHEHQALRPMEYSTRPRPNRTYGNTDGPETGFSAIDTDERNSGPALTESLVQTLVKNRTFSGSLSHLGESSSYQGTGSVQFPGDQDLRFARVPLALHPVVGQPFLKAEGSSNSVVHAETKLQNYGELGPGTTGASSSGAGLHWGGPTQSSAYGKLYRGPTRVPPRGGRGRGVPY
Protocol: 7. CYCLIN K Nuclear Protein Level: Immunofluorescence/High Content Analysis
In the context of the present invention, the term “DC50 Cyclin K” refers to the DC50 values obtained according to the assay described in this section (7) herein below, i.e. the DC50 values for the degradation of Cyclin K.
(§1) CAL-120 human breast cancer cells (DSMZ ACC 459) are seeded in 1536-well microtiter plates (800 cells per well) containing 50 nanoL of compounds in Dose-Response. Control wells received DMSO or Reference Example 1. Plates are then incubated for 24 h at 37° C. in an humidified incubator and fixed with 4% PFA for 10 min. Then immunofluorescence (IF) against CYCLIN K (ThermoFisher Scientific CCNK Antibody # PA5-85020, rabbit, 1:200 dilution) is performed using standard IF protocols. Cells are then stained with Hoechst 33342 (Life Technologies, H-1399, 0.1 microg/mL) and imaged on an automated confocal microscopy system (e.g. Perkin Elmer Opera Phenix). Nuclear and cytoplasmic intensity as well as the nuclear/cytoplasmic intensity ratio is determined by automated image analysis using custom generated scripts (MetaXpress). Data is then transferred to Genedata Screener software, normalized to DMSO and control and DC50 values (degrading concentration to achieve 50% reduction of nuclear CCNK staining intensity relative to controls) are reported.

[2] = molecular target: T2, CDK12/CyclinK (Homo sapiens, UniProt Q9NYV4); test: CDK12/CycK high ATP kinase assay (TR-FRET); assay type: biochemical; settings: 2 mM ATP (high ATP); median; read-out: CDK12/CyclinK, 2 mM ATP (high ATP), IC50 - [mol/l] (median)
T2 construct: His-CDK12 (aa Q696-S1082); made in house; host or cells: Hi-5 insect cells (baculovirus co-infection with CycK and yeast CAK1)
T2 sequence (Q9NYV4 with tags, fused parts or gaps): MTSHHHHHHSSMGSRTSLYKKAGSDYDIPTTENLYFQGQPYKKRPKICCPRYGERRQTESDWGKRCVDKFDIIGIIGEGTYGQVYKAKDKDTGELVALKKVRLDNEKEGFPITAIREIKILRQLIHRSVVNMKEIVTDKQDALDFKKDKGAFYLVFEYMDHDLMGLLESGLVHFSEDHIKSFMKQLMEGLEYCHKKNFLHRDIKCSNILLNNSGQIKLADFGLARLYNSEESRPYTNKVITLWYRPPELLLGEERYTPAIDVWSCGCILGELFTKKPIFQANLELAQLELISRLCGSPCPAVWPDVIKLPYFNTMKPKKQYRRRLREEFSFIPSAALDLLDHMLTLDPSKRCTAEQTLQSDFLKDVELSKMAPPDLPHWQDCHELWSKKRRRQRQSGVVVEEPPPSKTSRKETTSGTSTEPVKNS
T2 sequence (O75909 with tags, fused parts or gaps partner limits assumed): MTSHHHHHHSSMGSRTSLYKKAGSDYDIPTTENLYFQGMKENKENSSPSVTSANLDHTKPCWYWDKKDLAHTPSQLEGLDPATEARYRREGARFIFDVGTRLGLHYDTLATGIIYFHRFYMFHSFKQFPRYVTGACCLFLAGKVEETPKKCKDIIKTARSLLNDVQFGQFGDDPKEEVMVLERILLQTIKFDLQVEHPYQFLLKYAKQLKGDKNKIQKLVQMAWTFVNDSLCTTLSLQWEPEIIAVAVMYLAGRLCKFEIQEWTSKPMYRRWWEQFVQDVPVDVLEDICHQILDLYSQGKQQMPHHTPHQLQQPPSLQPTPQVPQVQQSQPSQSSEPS
Description: 2.2 CDK12/CycK high ATP Kinase Assay
In the context of the present invention, the term “IC50 CDK12 hATP” refers to the ICso values obtained according to the assay described in this section (2.2) herein below, i.e. the IC50 values for the inhibition of CDK12 at high ATP.
CDK12/CycK -inhibitory activity of compounds of the present invention at 2 millimol/L adenosine-tri-phosphate (ATP) was quantified employing the TR-FRET (TR-FRET=Time Resolved Fluorescence Energy Transfer) based CDK12/CycK activity inhibition assay as described in the following paragraphs.
A complex of human recombinant CDK12 and human recombinant CycK (both N-terminally His-tagged, expression and purification as described above) was used as enzyme. As substrate for the kinase reaction biotinylated peptide biotin-Ahx-KFELLPTPPLSPSRRSGL (C-terminus in amid form) was used which can be purchased e.g. form the company Biosyntan (Berlin-Buch, Germany).
For the assay 50 nanoL of a 100 fold concentrated solution of the test compound in DMSO was pipetted into either a black low volume 384 well microtiter plate or a black 1536 well microtiter plate (both Greiner Bio-One, Frickenhausen, Germany), 2 microL of a solution of CDK12/CycK in aqueous assay buffer [25 millimol/L HEPES pH 7.5, 20 millimol/L MgCl2, 5 millimol/L β-glycerophosphate, 2 millimol/L EGTA, 1.0 millimol/L dithiothreitol, 0.01% (v/v) Nonidet-P40 (Sigma), 0.01% (w/v) bovine serum albumin] were added and the mixture was incubated for 15 min at 22° C. to allow pre-binding of the test compounds to the enzyme before the start of the kinase reaction. Then the kinase reaction was started by the addition of 3 microL of a solution ATP (3.33 millimol/L=>final conc. in the 5 microL assay volume is 2 millimol/L) and substrate (1.67 micromol/L=>final conc. in the 5 microL assay volume is 1 micromol/L) in assay buffer and the resulting mixture was incubated for a reaction time of 60 min at 22° C. The concentration of CDK12/CycK was adjusted depending of the activity of the enzyme lot and was chosen appropriate to have the assay in the linear range, typical concentrations were about 0.75 nanomol/L. The reaction was stopped by the addition of 3 microL of a solution of TR-FRET detection reagents (125 nanomol/L streptavidine-XL665 [Cisbio Bioassays, Codolet, France] and 0.67 nanomol/L anti-Phospho-c-Myc (Ser 62) (E1J4K)-antibody from Cell Signalling [#13748] and 2 nanomol/L LANCE EU-W1024 labeled anti-rabbit IgG antibody [Perkin-Elmer, product no. 0083]) in an aqueous EDTA-solution (133 millimol/L EDTA, 0.27% (w/v) bovine serum albumin in 66.7 millimol/L HEPES pH 7.5).
The resulting mixture was incubated 1 h at 22° C. to allow the formation of complex between the phosphorylated biotinylated peptide and the detection reagents. Subsequently the amount of phosphorylated substrate was evaluated by measurement of the resonance energy transfer from the Eu-chelate to the streptavidine-XL. Therefore, the fluorescence emissions at 620 nm and 665 nm after excitation at 350 nm was measured in a TR-FRET reader, e.g. a Pherastar FS (BMG Labtechnologies, Offenburg, Germany) or a Viewlux (Perkin-Elmer). The ratio of the emissions at 665 nm and at […] was taken as the measure for the amount of phosphorylated substrate. The data were normalised (enzyme reaction without inhibitor=0% inhibition, all other assay components but no enzyme=100% inhibition).

[3] = molecular target: T3, CDK12 (Homo sapiens, UniProt Q9NYV4); test: CDK12 nuclear protein level: immunofluorescence/high content analysis in CAL-120 cells; assay type: cell-based
T3 construct: endogenous in cells; host or cells: CAL-120 human breast cancer cells (DSMZ ACC 459)
T3 sequence (Q9NYV4 whole entry): as the sequence (Q9NYV4 whole entry partner) above
T3 sequence (O75909 whole entry partner): as the sequence (O75909 whole entry) above
Protocol: 6. CDK12 Nuclear Protein Level: Immunofluorescence/High Content Analysis
In the context of the present invention, the term “DC50 CDK12” refers to the DC50 values obtained according to the assay described in this section (6) herein below, i.e. the DC50 values for the degradation of CDK12.:
as §1, with “CDK12 (CellSignalling CDK12” for “CYCLIN K (ThermoFisher Scientific CCNK”, “#11973,” for “# PA5-85020,”, “1:100” for “1:200”, “CDK12” for “CCNK”

In the case of `CN1CCC(n2nc(NCc3nc4c(OC(F)(F)F)cccc4[nH]3)c3ncc(C4CC4)nc32)CC1` [Example 5, 6-cyclopropyl-1-(1-methylpiperidin-4-yl)-N-{[4-(trifluoromethoxy)-1H-benzimidazol-2-yl]methyl}-1H-pyrazolo[3,4-b]pyrazin-3-amine], the DC50 [1] is reported as 3.46 nM, the IC50 [2] is reported as over 20000 nM and the DC50 ([3]; CAL-120 cells, 24 h, nuclear CDK12 staining intensity, median, read-out: CDK12 degradation IF DC50 - [mol/l] (median)) is reported as 83.4 nM. For the same compound, the “(IC50 CDK12 high ATP) to (Degradation DC50 CDK12) ratio” value ([3]; ratio of IC50 CDK12 hATP (2 mM ATP) to DC50 CDK12 (IF, CAL-120)) was over 239.
